In PMC6687188, “Novel lactate dehydrogenase inhibitors with in vivo efficacy against Cryptosporidium parvum” (PLoS Pathogens, 2019):

Target: recombinant CpLDH protein (Cryptosporidium parvum, UniProt Q9GT92, F198L/K295E/R251K)

Row | Compound | MEAN CpLDH INHIBITION (%)
1 | C[C@]12Cc3cnc(-c4ccccc4)nc3C[C@@H]1CC[C@@H]1[C@@H]2CC[C@@]2(C)[C@H]1CC[C@]2(C)O [NSC39863] | -20.27
2 | Cc1nc(Cl)c(C)c(Cl)n1 [NSC40212] | -35.86
3 | O=C1C(Cl)=C(N2CCN(C3=C(Cl)C(=O)c4ccccc4C3=O)CC2)C(=O)c2ccccc21 [NSC40341] | -22.69
4 | Nc1nc(SCc2ccccc2Cl)c2ncn(C3OC(CO)C(O)C3O)c2n1 (centres unmarked) [NSC40666] | -57.18
5 | O=C(O)CC(S)C(=O)O (centres unmarked) [NSC41809] | -14.35
6 | COc1ccc(/C=C/c2cc(O)cc(O[C@@H]3O[C@H](CO)[C@@H](O)[C@H](O)[C@H]3O)c2)cc1O [NSC43321] | -58.94
7 | CCN(CC)c1ccc2cc3ccc(=[N+](CC)CC)cc-3oc2c1.[Cl-] [NSC44690] | -28.19
8 | Oc1ccc2ccccc2c1N=Nc1cccc2ccccc12 [NSC45575] | -10.08
9 | CCCCCc1cc(/C=C2/N=C(c3ccc[nH]3)C=C2OC)[nH]c1C [NSC47147] | -37.67
10 | CC(=O)O[C@]1(C(C)=O)CC[C@H]2[C@@H]3C[C@H](C)C4=CC(=O)C=C[C@]4(C)[C@@]3(F)[C@@H](O)C[C@@]21C [NSC47438] | -57.83
11 | CC(C)(C)c1ccc(O)c(CN(Cc2cc(C(C)(C)C)ccc2O)C2CCCCC2)c1 [NSC48151] | -66.17
12 | CC(=O)OC(C)(C)/C=C/C(=O)[C@](C)(O)[C@H]1[C@H](O)C[C@@]2(C)[C@@H]3CC=C4[C@@H](C[C@H](O)C(=O)C4(C)C)[C@]3(C)C(=O)C[C@]12C [NSC49451] | -57.10
13 | [Cl-].c1csc(C[N+]23CN4CN(CN(C4)C2)C3)c1 [NSC49660] | -3.53
14 | CN(C)[C@@H]1C(=O)C(C(N)=O)=C(O)[C@@]2(O)C(=O)C3=C(O)c4c(O)cccc4C[C@H]3C[C@@H]12 [NSC51812] | -26.06
15 | C[C@@H]1C[C@H]2CC[C@H](O2)[C@H](C)C(=O)O[C@@H](C)C[C@@H]2CC[C@@H](O2)[C@@H](C)C(=O)O[C@H](C)C[C@H]2CC[C@H](O2)[C@H](C)C(=O)O[C@@H](C)C[C@@H]2CC[C@@H](O2)[C@@H](C)C(=O)O1 [NSC52141] | -100.84
16 | COc1ccc(-c2cc(=O)c3c(OC)c(OC)c(OC)cc3o2)cc1 [NSC53908] | -32.76
17 | Nc1nc(-c2cccs2)cs1 [NSC54297] | -31.48
18 | COc1ccc2oc(-c3ccncc3)cc(=O)c2c1 [NSC54650] | -73.33
19 | O=C1/C(=C\c2cccs2)Oc2ccccc21 [NSC56544] | -23.78
20 | COc1cccc(/C=N\NC(=O)C(C)SC(C)C(=O)N/N=C/c2cccc(OC)c2)c1 (centres unmarked) [NSC56737] | -38.88
21 | CCCCCCCCCCCCCCCCOCC(O)CO (centres unmarked) [NSC59269] | 0.04
22 | O=[n+]1c2c(n([O-])c3ccccc31)-c1cccc3cccc-2c13 [NSC60309] | -23.17
23 | CC[C@@]12CCCN3CC[C@]4(c5cccc(OC)c5N(C(C)=O)[C@@H]4CC1)[C@H]32 [NSC61811] | -26.07
24 | CC(C)[C@@H](C)/C=C/[C@@H](C)[C@H]1CC[C@H]2C3=CC=C4C[C@@H](O)CC[C@]4(C)[C@H]3CC[C@]12C [NSC62791] | -22.35
25 | CS(=O)(=O)c1nc(N)nc2nc[nH]c12 [NSC63446] | -4.16
26 | N#Cc1cn([C@@H]2O[C@H](CO)[C@@H](O)[C@H]2O)c2ncnc(N)c12 [NSC63701] | -0.31

Row | Compound | MEAN CpLDH INHIBITION (%)
27 | CC(C)CCCCCCCCCCCCC(=O)NCC(=O)NC1C(O)C(O)C(Nc2ncnc3nc[nH]c23)OC1C(O)CO (centres unmarked) [NSC65104] | -113.50
28 | NC(=O)c1cn([C@@H]2O[C@H](CO)[C@@H](O)[C@H]2O)c2ncnc(N)c12 [NSC65346] | -11.87
29 | NC(=O)C#CC(N)=O [NSC65381] | 0
30 | OC[C@H]1O[C@@H](n2cnc3cncnc32)[C@H](O)[C@@H]1O [NSC65423] | -32.77
31 | O=C(Nc1ccc2c(c1)oc(=O)c1ccccc12)C(Cl)Cl [NSC65937] | -25.00
32 | CCCCC(/C=N/N=C(N)N)CC.Cc1cc(O)c(C(C)C)cc1S(=O)(=O)O [NSC66300] | -42.12
33 | CCCc1c(Cl)nc(Cl)nc1Cl [NSC66914] | -32.10
34 | COc1cc(-c2cc(=O)c3c(OC)c(OC)c(OC)c(OC)c3o2)cc(OC)c1OC [NSC67580] | -41.90
35 | O=C(O)c1ccccc1-c1ccccc1C(=O)Nc1ccc2c(c1)Cc1ccccc1-2 [NSC67690] | -56.08
36 | COc1cc(C[C@H]2c3cc(OC)c(OC)cc3CCN2C)c(Oc2cc3c(cc2OC)-c2c(OC)c(OC)cc4c2[C@H](C3)N(C)CC4)cc1OC [NSC68075] | -148.49
37 | [O-][n+]1ccccc1[S-].[O-][n+]1ccccc1[S-].[Zn+2] [NSC68093] | -17.03
38 | COc1ccc2[nH]c3c(C)c4ccncc4c(C)c3c2c1 [NSC69187] | -16.81
39 | Cl.Cl.Cl.Cl.NCCCNCCCCNCCCN [NSC69852] | -11.66
40 | Nc1ncnc2c1ncn2C1OC(CO)C(O)C1O (centres unmarked) [NSC70422] | -12.00
41 | COc1ccc(OC)c(-c2cc(=O)c3c(OC)c(OC)c(OC)c(OC)c3o2)c1 [NSC71300] | -64.35
42 | Nc1nc(N)c(-c2cccc(C(F)(F)F)c2)c(Cc2cccc(C(F)(F)F)c2)n1 [NSC71669] | -53.065
43 | Nc1nc(=S)c2ncn(C3CC(O)C(CO)O3)c2[nH]1 (centres unmarked) [NSC71851] | -30.23
44 | Nc1ncnc2c1nnn2[C@@H]1O[C@H](CO)[C@@H](O)[C@H]1O [NSC72961] | -2.40
45 | CC(=O)C1=C(O)C2(O)C(=O)c3c(c(C)c4ccc(C)c(O)c4c3O)CC2C(N)C1=O.CCCCCCCCCCCCOS(=O)(=O)O (centres unmarked) [NSC73495] | -99.50
46 | NC(N)=N/N=C(\c1ccc(Cl)cc1)C1CC1 [NSC74420] | -7.03
47 | O=C(Nc1ccc(Sc2ccc(N=Nc3c(O)c(S(=O)(=O)O)cc4cc(S(=O)(=O)O)ccc34)cc2)cc1)c1ccc(N=Nc2c(O)ccc3c(S(=O)(=O)O)cc(S(=O)(=O)O)cc23)cc1 [NSC76027] | -85.04
48 | CC1=Nc2ccccc2/C1=C\c1c(C)[nH]c2ccccc12 [NSC76747] | -6.97
49 | C[C@]12C=CC(=O)C=C1[C@@H](F)C[C@H]1[C@@H]3CC[C@](O)(C(=O)CO)[C@@]3(C)C[C@H](O)[C@@]12F [NSC77021] | -2.42
50 | CCCCOc1ccc(NC(N)=Nc2ccc(Cl)cc2)cc1 [NSC78365] | -60.70
51 | Cc1ccc([N+](=O)[O-])cc1NC(=O)c1cccc([N+](=O)[O-])c1O [NSC79451] | -40.98
52 | Cc1ccc(NC(=O)c2cccc([N+](=O)[O-])c2O)c(C)c1 [NSC79456] | -17.92

Row | Compound | MEAN CpLDH INHIBITION (%)
53 | CN(C)c1ccc(/C=C2\C=Cc3ccccc32)cc1 [NSC80087] | -24.95
54 | COc1cc(OC)c(OC)cc1/C=C/c1ccnc2ccccc12 [NSC80756] | -22.71
55 | Cc1ccc(NC(=O)c2cccc([N+](=O)[O-])c2O)c([N+](=O)[O-])c1 [NSC82025] | -16.46
56 | N[C@@H](CSC(c1ccccc1)(c1ccccc1)c1ccccc1)C(=O)O [NSC83265] | -6.04
57 | BrCCC[P+](c1ccccc1)(c1ccccc1)c1ccccc1.[Br-] [NSC84074] | -40.93
58 | C=C1C(=O)O[C@@H]2C[C@@H](C)[C@@H]3C=CC(=O)[C@@]3(C)[C@@H](O)[C@H]12 [NSC85236] | -30.32
59 | Cc1ccc2c(ccc(C=Cc3ccc(O)c4ncccc34)[n+]2C)c1 [NSC85700] | -37.65
60 | Cc1c2c(cc3c1[nH]c1ccccc13)C=NCC2 [NSC86100] | -9.40
61 | Cc1c2ccncc2cc2c1[nH]c1ccccc12 [NSC87206] | -25.74
62 | O=c1cccccc1O [NSC89303] | -7.26
63 | C[C@H]1CCC/C=C/[C@@H]2C[C@H](O)C[C@H]2[C@H](O)/C=C/C(=O)O1 [NSC89671] | -22.45
64 | C=C(C)[C@@H]1CC[C@]2(C)CC[C@]3(C)[C@H](CC[C@@H]4[C@@]5(C)CC[C@H](O)C(C)(C)[C@@H]5CC[C@]43C)[C@@H]12 [NSC90487] | -42.73
65 | CC(C)(C)C1CCC2(CC1)CCN(CCCN1CCOCC1)CC2 [NSC90829] | -2.93
66 | CCCCCCCCCc1c(Cl)nc(Cl)nc1Cl [NSC92510] | -23.70
67 | COc1cc2c3cc1Oc1c(OC)c(OC)cc4c1[C@H](Cc1ccc(cc1)Oc1cc(ccc1O)C[C@H]3N(C)CC2)N(C)CC4 [NSC93135] | -27.33
68 | COc1cc(O)c2c(c1)C(=O)c1cc3c(c(O)c1C2=O)[C@@H](O[C@@H]1O[C@@H](C)[C@H](O)[C@@H](O)[C@H]1OC)[C@H](OC)[C@](C)(O)C3=O [NSC93419] | -51.14
69 | CC1=CC(=C(c2ccc(N)cc2)c2ccc(N)cc2)C=CC1=N.Cl [NSC93739] | -24.21
70 | CC(=O)NCCCCCCNC(C)=O [NSC95580] | -114.38
71 | NC(=S)NN=Cc1ncccc1O [NSC95678] | -37.43
72 | COC1(O)C(=O)c2ccccc2OC1(OC)c1ccccc1 (centres unmarked) [NSC95848] | -17.43
73 | CCN1/C(=C/C(C)=C/c2sc3ccccc3[n+]2CC)Sc2ccccc21.[I-] [NSC96932] | -8.62
74 | CC1(c2cccc3ccccc23)OC(=O)c2ccccc21 (centres unmarked) [NSC97703] | -3.23
75 | CC(=O)c1ccc(Oc2ccc(/C(C)=N\N=C(N)N)cc2)cc1.O=[N+]([O-])O [NSC97911] | -11.97
76 | [O-][Cl+3]([O-])([O-])[O-].c1ccc(-c2csc3c4ccccc4c4ccccc4[n+]23)cc1 [NSC98904] | -42.18
77 | CN1CC[C@]23c4ccccc4N[C@H]1[C@]21CCN(C)[C@H]3Nc2ccccc21 [NSC99016] | -25.29
